This is an account of results in patent publication US12448395B2 (BRISTOL-MYERS SQUIBB COMPANY, priority 2019, dated 2025).

Where a name gives a salt, the structure may show the parent alone.

Holding throughout (assay type): cell-based
The target of one assay is T1, human TLR8 (Homo sapiens, UniProt Q9NR97).
T1 sequence (Q9NR97 27-1041): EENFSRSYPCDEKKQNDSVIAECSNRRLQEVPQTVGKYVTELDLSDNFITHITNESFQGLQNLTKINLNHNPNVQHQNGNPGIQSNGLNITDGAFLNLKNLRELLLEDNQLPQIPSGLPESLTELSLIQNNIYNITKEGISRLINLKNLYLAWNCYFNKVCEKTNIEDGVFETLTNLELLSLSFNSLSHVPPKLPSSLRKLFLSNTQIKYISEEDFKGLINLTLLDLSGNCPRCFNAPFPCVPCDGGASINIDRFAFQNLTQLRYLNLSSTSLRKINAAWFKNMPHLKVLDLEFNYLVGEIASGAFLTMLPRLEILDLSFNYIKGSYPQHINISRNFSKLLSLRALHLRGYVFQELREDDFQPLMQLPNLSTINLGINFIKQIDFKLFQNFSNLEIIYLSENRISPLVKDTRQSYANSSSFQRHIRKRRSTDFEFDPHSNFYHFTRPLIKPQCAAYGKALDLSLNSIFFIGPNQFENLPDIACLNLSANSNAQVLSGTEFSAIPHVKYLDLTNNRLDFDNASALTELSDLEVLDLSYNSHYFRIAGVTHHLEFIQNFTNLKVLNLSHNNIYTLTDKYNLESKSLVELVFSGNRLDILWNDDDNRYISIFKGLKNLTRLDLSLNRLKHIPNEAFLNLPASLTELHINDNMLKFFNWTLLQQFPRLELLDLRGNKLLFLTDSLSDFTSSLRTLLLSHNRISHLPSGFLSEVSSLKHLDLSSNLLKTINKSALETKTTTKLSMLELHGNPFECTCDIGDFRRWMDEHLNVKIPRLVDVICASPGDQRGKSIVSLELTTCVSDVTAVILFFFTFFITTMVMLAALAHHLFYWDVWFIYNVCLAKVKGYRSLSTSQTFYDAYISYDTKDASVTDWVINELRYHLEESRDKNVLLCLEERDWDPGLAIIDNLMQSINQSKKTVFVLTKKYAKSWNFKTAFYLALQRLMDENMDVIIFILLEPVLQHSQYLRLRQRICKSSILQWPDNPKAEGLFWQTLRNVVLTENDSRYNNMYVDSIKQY
The assay can be described thus: TLR8 inhibition reporter assay (HEK-Blue SEAP, R848 stimulation). To be noted: HEK-Blue cells overexpressing human TLR8, R848 15.9 μM. The method, then:
(§1) TLR7/8/9 Inhibition Reporter Assays
(§2) HEK-Blue™-cells (Invivogen) overexpressing human TLR7, TLR8 or TLR9 receptors were used for screening inhibitors of these receptors using an inducible SEAP (secreted embryonic alkaline phosphatase) reporter gene under the control of the IFN-β minimal promoter fused to five NF-κB and AP-1-binding sites. Briefly, cells are seeded into Greiner 384 well plates (15000 cells per well for TLR7, 20,000 for TLR8 and 25,000 for TLR9) and then treated with test compounds in DMSO to yield a final dose response concentration range of 0.05 nM-50 μM. After a 30 minute compound pre-treatment at room temperature, the cells are then stimulated with a TLR7 ligand (gardiquimod at a final concentration of 7.5 μM), TLR8 ligand (R848 at a final concentration of 15.9 μM) or TLR9 ligand (ODN2006 at a final concentration of 5 nM) to activate NF-κB and AP-1 which induce the production of SEAP. After a 22 hour incubation at 37° C., 5% CO2, SEAP levels are determined with the addition of HEK-Blue™ Detection reagent (Invivogen), a cell culture medium that allows for detection of SEAP, according to manufacturer's specifications. The percent inhibition is determined as the % reduction in the HEK-Blue signal present in wells treated with agonist plus DMSO alone compared to wells treated with a known inhibitor.
(In a reporter assay the amount or activity of a reporter protein is the signal.)

Another assay deals with T2, human TLR7 (Homo sapiens, UniProt Q9NYK1).
T2 sequence (Q9NYK1 27-1049): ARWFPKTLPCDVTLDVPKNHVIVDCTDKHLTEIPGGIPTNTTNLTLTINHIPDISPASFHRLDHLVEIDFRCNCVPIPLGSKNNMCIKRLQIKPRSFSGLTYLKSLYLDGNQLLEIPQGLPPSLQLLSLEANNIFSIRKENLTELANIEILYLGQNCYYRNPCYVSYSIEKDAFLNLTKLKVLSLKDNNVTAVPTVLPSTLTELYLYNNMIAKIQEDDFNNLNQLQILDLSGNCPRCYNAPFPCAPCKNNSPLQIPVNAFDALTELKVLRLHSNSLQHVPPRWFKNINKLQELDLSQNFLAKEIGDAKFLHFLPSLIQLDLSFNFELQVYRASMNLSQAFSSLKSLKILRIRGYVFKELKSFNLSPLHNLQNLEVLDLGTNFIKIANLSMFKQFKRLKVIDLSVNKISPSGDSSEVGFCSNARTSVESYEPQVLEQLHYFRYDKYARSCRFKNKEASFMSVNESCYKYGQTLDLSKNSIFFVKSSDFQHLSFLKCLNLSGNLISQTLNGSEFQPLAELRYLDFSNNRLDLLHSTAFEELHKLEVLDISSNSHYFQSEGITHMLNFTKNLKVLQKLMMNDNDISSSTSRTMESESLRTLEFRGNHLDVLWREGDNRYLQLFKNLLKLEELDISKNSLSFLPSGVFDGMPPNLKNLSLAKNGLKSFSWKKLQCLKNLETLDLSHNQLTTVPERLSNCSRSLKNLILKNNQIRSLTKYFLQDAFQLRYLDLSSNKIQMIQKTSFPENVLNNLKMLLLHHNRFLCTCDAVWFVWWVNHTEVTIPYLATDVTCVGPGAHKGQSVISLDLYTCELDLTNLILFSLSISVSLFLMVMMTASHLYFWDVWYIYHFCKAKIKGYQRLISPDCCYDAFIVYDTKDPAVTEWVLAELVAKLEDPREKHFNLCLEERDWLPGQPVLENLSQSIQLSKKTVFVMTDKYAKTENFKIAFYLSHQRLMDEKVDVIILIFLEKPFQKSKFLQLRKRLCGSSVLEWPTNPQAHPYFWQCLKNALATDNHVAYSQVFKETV
In words: TLR7 inhibition reporter assay (HEK-Blue SEAP, gardiquimod stimulation). As to conditions: HEK-Blue cells overexpressing human TLR7, gardiquimod 7.5 μM. The method, then: as §1, §2

For another assay, the target named is T3, human TLR9 (Homo sapiens, UniProt Q9NR96).
T3 sequence (Q9NR96 26-1032): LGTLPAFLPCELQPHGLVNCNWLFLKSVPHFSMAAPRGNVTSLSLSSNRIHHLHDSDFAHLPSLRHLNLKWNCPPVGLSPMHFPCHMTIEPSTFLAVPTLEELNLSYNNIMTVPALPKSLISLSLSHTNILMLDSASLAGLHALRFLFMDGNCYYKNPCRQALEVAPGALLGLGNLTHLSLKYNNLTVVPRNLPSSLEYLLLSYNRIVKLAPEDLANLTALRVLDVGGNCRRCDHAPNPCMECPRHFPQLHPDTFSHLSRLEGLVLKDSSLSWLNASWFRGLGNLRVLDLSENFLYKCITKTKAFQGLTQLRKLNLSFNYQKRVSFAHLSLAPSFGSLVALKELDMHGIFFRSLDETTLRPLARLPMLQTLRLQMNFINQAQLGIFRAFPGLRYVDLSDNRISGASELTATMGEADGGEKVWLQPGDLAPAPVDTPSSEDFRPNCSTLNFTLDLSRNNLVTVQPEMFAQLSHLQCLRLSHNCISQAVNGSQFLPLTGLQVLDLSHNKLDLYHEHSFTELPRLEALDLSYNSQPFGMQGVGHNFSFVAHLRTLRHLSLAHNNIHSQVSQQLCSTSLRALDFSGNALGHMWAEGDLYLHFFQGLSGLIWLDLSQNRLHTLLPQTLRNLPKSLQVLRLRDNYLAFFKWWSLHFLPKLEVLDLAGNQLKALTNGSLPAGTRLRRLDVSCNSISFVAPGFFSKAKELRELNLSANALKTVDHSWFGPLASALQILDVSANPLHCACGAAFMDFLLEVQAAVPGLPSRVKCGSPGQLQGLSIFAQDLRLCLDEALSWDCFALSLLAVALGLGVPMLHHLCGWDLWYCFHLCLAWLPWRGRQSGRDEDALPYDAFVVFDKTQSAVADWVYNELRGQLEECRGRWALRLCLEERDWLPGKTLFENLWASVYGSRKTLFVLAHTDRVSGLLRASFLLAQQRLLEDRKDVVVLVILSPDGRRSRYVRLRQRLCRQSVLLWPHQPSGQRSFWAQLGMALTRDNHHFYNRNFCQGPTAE
In words: TLR9 inhibition reporter assay (HEK-Blue SEAP, ODN2006 stimulation). To be noted: HEK-Blue cells overexpressing human TLR9, ODN2006 5 nM. In outline:
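Dose–response from 0.05 nM to 50 μM was run in HEK-Blue human TLR7, TLR8 and TLR9 reporter cells. After 30 min at room temperature with compound, ligand was added (TLR7 gardiquimod 7.5 μM; TLR8 R848 15.9 μM; TLR9 ODN2006 5 nM) and SEAP measured next day, at 22 h.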

For orientation: IC50 means the concentration at which inhibition is half-maximal. Read a high IC50 as weaker potency. In the case of `Cc1c(-c2[nH]c3sc(C4CCC(NCC(=O)N5CCOCC5)CC4)nc3c2C(C)C)cn2ncnc2c1C` (single isomer, unassigned) [Example 206, 2-((4-(5-(7,8-dimethyl-[1,2,4]triazolo[1,5-a]pyridin-6-yl)-6-isopropyl-4H-pyrrolo[3,2-d]thiazol-2-yl)cyclohexyl)amino)-1-morpholinoethan-1-one], the IC50 against human TLR8 worked out at 0.64 nM; against human TLR7, 2.27 nM; against human TLR9 it was 12600 nM.

`Cc1c(-c2[nH]c3sc(C4CCC(NCC(=O)N5CCOCC5)CC4)nc3c2C(C)C)cn2ncnc2c1C` (single isomer, unassigned) [Example 207, 2-((4-(5-(7,8-dimethyl-[1,2,4]triazolo[1,5-a]pyridin-6-yl)-6-isopropyl-4H-pyrrolo[3,2-d]thiazol-2-yl)cyclohexyl)amino)-1-morpholinoethan-1-one]: the IC50 on human TLR8 was 0.31 nM; against human TLR7, 2.92 nM; on human TLR9 it was 20700 nM.

As for `Cc1c(-c2[nH]c3sc(N4CCNC[C@H]4C)nc3c2C(C)C)cn2ncnc2c1C` [Example 308, (R)-5-(7,8-dimethyl-[1,2,4]triazolo[1,5-a]pyridin-6-yl)-6-isopropyl-2-(2-methylpiperazin-1-yl)-4H-pyrrolo[3,2-d]thiazole, HCl], the IC50 against human TLR8 came to 0.09 nM; against human TLR7 it was 0.18 nM; against human TLR9, 15800 nM.
